Test results as given in ChEMBL document CHEMBL1133492, “Design, synthesis, and biological evaluation of fluoronitrophenyl substituted folate analogues as potential inhibitors of GAR transformylase and AICAR transformylase” (Bioorg Med Chem Lett, 2000).

These compounds were tested against Phosphoribosylglycinamide formyltransferase (Escherichia coli) (UniProt P08179) (assay: In vitro inhibitory activity against Glycinamide ribonucleotide transformylase (GAR Tfase) following 30 min pre-incubation at 250 uM concentration).
Phosphoribosylglycinamide formyltransferase (Escherichia coli), sequence (P08179 whole entry, looked up): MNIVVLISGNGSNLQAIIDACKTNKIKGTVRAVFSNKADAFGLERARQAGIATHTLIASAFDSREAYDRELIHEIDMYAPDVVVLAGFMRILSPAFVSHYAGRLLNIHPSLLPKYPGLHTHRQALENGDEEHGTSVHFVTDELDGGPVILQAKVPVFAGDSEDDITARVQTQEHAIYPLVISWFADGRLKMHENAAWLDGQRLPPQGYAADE

SMILES	inhibition [%]
COC(=O)c1ccc(CN(CCCc2c(N)nc(N)nc2O)c2ccc([N+](=O)[O-])c(F)c2F)cc1	57
Nc1nc(N)c(CCCNc2cc(F)ccc2[N+](=O)[O-])c(O)n1	69
COC(=O)c1ccc(CN(CCCc2c(N)nc(N)nc2O)c2cc(F)ccc2[N+](=O)[O-])cc1	41
COC(=O)c1ccc(CN(CCc2c(N)nc(N)nc2O)c2cc(F)c(F)cc2[N+](=O)[O-])cc1	3
COC(=O)c1ccc(CN(CCc2c(N)nc(N)nc2O)c2cc(F)ccc2[N+](=O)[O-])cc1	43
COC(=O)c1ccc(CN(CCCc2c(N)nc(N)nc2O)c2cc(F)c(F)cc2[N+](=O)[O-])cc1	33
Nc1nc(N)c(CCCNc2cc(F)c(F)cc2[N+](=O)[O-])c(O)n1	82
COC(=O)c1ccc(CN(CCCc2c(N)nc(N)nc2O)c2cc(F)cc(F)c2[N+](=O)[O-])cc1	5
Nc1nc(N)c(CCCNc2cc(F)c([N+](=O)[O-])cc2[N+](=O)[O-])c(O)n1	73
COC(=O)c1ccc(CN(CCc2c(N)nc(N)nc2O)c2cc(F)c([N+](=O)[O-])cc2[N+](=O)[O-])cc1	24
Nc1nc(N)c(CCCNc2cc(F)cc(F)c2[N+](=O)[O-])c(O)n1	70
COC(=O)c1ccc(CN(CCc2c(N)nc(N)nc2O)c2cc(F)cc(F)c2[N+](=O)[O-])cc1	9
COC(=O)c1ccc(CN(CCc2c(N)nc(N)nc2O)c2ccc([N+](=O)[O-])c(F)c2F)cc1	60
COC(=O)c1ccc(CN(CCCc2c(N)nc(N)nc2O)c2cc(F)c([N+](=O)[O-])cc2[N+](=O)[O-])cc1	9
